Test systems include PC-3 prostate; NCI-H460 lung; SN12C renal; SW-620 colon; HS 578T breast; MOLT-4 leukemia; NCI/ADR-RES ovarian; MALME-3M melanoma; SF-295 CNS; A549 NSCLC.
What all share (assay): NCI tumour cell line growth inhibition, 48 h

“And” between values parts separate entries of the source, which are not always exact repeats. Equal values may be shown once.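 The compound was tested at five concentrations on cells cultured in 96-well plates, with a 48-hour exposure period. Abbreviation: GI50, concentration required for 50% inhibition of growth. The concentration for full growth arrest is given as TGI.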

For `COc1cc(-c2nc(-c3ccc(-c4nc5ccc(F)cc5[nH]4)cc3)no2)cc(OC)c1OC`, the GI50 in the experiment with PC-3 prostate was 2.33 µM; with NCI-H460 lung it was 2.97 µM; with SN12C renal, 3.59 µM; with SW-620 colon, 3.61 µM; in the experiment with HS 578T breast, 2.27 µM; in the experiment with MOLT-4 leukemia it was 1.99 µM. Moreover, the GI50 with NCI/ADR-RES ovarian was 2.49 µM; in the experiment on MALME-3M melanoma, 2.32 µM; in the experiment on SF-295 CNS, 2.31 µM; in the experiment with A549 NSCLC, 3.42 µM. Moreover, the TGI in the experiment on PC-3 prostate was determined as 7.59 µM; with NCI-H460 lung, 12.5 µM; in the experiment on SN12C renal it was 38.3 µM; in the experiment on SW-620 colon it was 16.1 µM; with HS 578T breast, 7.36 µM; with MOLT-4 leukemia, 5.44 µM. In addition, the TGI in the experiment with NCI/ADR-RES ovarian came to 8.26 µM; in the experiment with MALME-3M melanoma, 6.52 µM; with SF-295 CNS it was 7.02 µM; in the experiment on A549 NSCLC, 14.6 µM.

As for `CC(C)=CC(=O)N[C@@H]1CC2CCC3C(CC[C@@]4(C)C3CC[C@@H]4C(C)N(C)C)[C@@]2(C)C[C@@H]1O` (stereo partly specified), the GI50 with PC-3 prostate was 3.73 µM; in the experiment with NCI-H460 lung it was 2.53 µM; with SN12C renal, 9.11 µM; with SW-620 colon, 2.86 µM; with HS 578T breast, 6.12 µM; with MOLT-4 leukemia it was 2.5 µM. Moreover, the GI50 was 7.05 µM in the experiment on NCI/ADR-RES ovarian, 2.91 µM in the experiment with MALME-3M melanoma, 3.45 µM in the experiment with SF-295 CNS and 7.27 µM with A549 NSCLC. The TGI is 32.7 µM in the experiment with PC-3 prostate; 8.88 µM in the experiment with NCI-H460 lung; > 44.5 µM with SN12C renal; 10.5 µM in the experiment on SW-620 colon; 25.3 µM in the experiment on HS 578T breast; 14 µM in the experiment on MOLT-4 leukemia. Further, the TGI was > 72.6 µM in the experiment with NCI/ADR-RES ovarian, 9.41 µM in the experiment on MALME-3M melanoma, 16.6 µM in the experiment on SF-295 CNS and 33.8 µM in the experiment on A549 NSCLC.

For the compound `O=C1/C(=C/c2ccc(Cl)c(Cl)c2)CNC/C1=C\c1ccc(Cl)c(Cl)c1`, the TGI was found to be 47.7 µM in the experiment on PC-3 prostate; 29.1 µM in the experiment on NCI-H460 lung; 12.9 µM with SN12C renal; 11.9 µM with SW-620 colon; 19.3 µM with HS 578T breast; 28.3 µM in the experiment with MOLT-4 leukemia. Besides, the TGI with NCI/ADR-RES ovarian was 14.1 µM; with MALME-3M melanoma, > 66.5 µM; in the experiment on SF-295 CNS, 76.6 µM; in the experiment on A549 NSCLC, 67.1 µM.

For `O=c1c2c(=NCCN3CCCC3)cc3c(=O)n(CCCN4CCOCC4)c(=O)c4ccc(c(O)n1CCCN1CCOCC1)c2c4-3`, the GI50 with PC-3 prostate is 0.0919 µM; with NCI-H460 lung, 0.0791 µM; in the experiment with SN12C renal it was 0.138 µM; with SW-620 colon, < 0.0192 µM; in the experiment with HS 578T breast, 1.18 µM; in the experiment with MOLT-4 leukemia it was < 0.0216 µM. Further, the GI50 is 0.166 µM with NCI/ADR-RES ovarian, 0.346 µM in the experiment with MALME-3M melanoma, 0.231 µM in the experiment with SF-295 CNS and 0.0441 µM in the experiment with A549 NSCLC. Moreover, the TGI in the experiment with PC-3 prostate turned out to be 0.638 µM; in the experiment on NCI-H460 lung, 1.08 µM; in the experiment on SN12C renal, 4.54 µM; in the experiment with SW-620 colon, 1.07 µM; in the experiment on HS 578T breast, 5.24 µM; with MOLT-4 leukemia it was 5.71 µM. In addition, the TGI with NCI/ADR-RES ovarian is 12 µM; in the experiment with MALME-3M melanoma it was 1.22 µM; with SF-295 CNS, 0.84 µM; in the experiment with A549 NSCLC, 3.44 µM.

Turning to `O=C(Cc1ccc(Nc2ccnc(C(F)(F)F)c2)cc1)Nc1cc(Cl)ccc1O`, the GI50 in the experiment with PC-3 prostate is 2.58 µM; with NCI-H460 lung it was 6.92 µM; in the experiment on SN12C renal, 9.09 µM; in the experiment with SW-620 colon it was 6.23 µM; in the experiment on HS 578T breast it was 3.7 µM; in the experiment with MOLT-4 leukemia, 1.73 µM. For the same compound, the GI50 was 3.46 µM in the experiment with NCI/ADR-RES ovarian, 3.83 µM in the experiment with MALME-3M melanoma, 3.06 µM in the experiment on SF-295 CNS and 15.3 µM in the experiment with A549 NSCLC. For the same compound, the TGI in the experiment with PC-3 prostate stood at 12.4 µM; in the experiment on NCI-H460 lung, 27.9 µM; with SN12C renal it was 38.5 µM; in the experiment with SW-620 colon, 21.4 µM; in the experiment on HS 578T breast it was 26 µM; with MOLT-4 leukemia it was 5.39 µM. For the same compound, the TGI in the experiment with NCI/ADR-RES ovarian is 24.5 µM; with MALME-3M melanoma, 32.7 µM; in the experiment with SF-295 CNS, 11.9 µM; in the experiment with A549 NSCLC, > 100 µM.

Regarding `CCOC(=O)c1ccccc1SC(C[N+](=O)[O-])c1ccccc1` (stereo unspecified), the GI50 with PC-3 prostate was 4.4 µM; in the experiment with NCI-H460 lung, 18.6 µM; in the experiment with SN12C renal, 8.17 µM; with SW-620 colon it was 2.04 µM; in the experiment on HS 578T breast it was 12.6 µM; in the experiment with MOLT-4 leukemia, 4.54 µM. Also, the GI50 was 22.5 µM in the experiment on NCI/ADR-RES ovarian, 14.8 µM in the experiment with MALME-3M melanoma, 18.3 µM with SF-295 CNS and 5.18 µM in the experiment with A549 NSCLC. Further, the TGI with PC-3 prostate was found to be 16.6 µM; in the experiment on NCI-H460 lung, 39.5 µM; in the experiment on SN12C renal, 20.8 µM; in the experiment with SW-620 colon, 4.7 µM; in the experiment on HS 578T breast it was 47.1 µM; in the experiment with MOLT-4 leukemia, 30.6 µM. The TGI in the experiment with NCI/ADR-RES ovarian stood at 64.1 µM; with MALME-3M melanoma, 29.5 µM; with SF-295 CNS it was 34.6 µM; in the experiment with A549 NSCLC, 21.6 µM.

Turning to `COc1ccc(/C=N\NC(=O)c2ccc3nc(-c4ccc(Cl)cc4)[nH]c3c2)cc1`, the GI50 is 1.66 µM with PC-3 prostate; 1.83 µM in the experiment on NCI-H460 lung; 2.46 µM in the experiment on SN12C renal; 2.41 µM with SW-620 colon; 2.3 µM with HS 578T breast; 4.53 µM in the experiment with MOLT-4 leukemia. Moreover, the GI50 in the experiment on NCI/ADR-RES ovarian is 7.81 µM; in the experiment on MALME-3M melanoma it was 1.67 µM; with SF-295 CNS, 2.23 µM; in the experiment with A549 NSCLC it was 2.46 µM. Also, the TGI was determined as 3.76 µM in the experiment with PC-3 prostate; 3.59 µM with NCI-H460 lung; 6.79 µM in the experiment on SN12C renal; 5.58 µM in the experiment with SW-620 colon; 5.64 µM with HS 578T breast; 30.4 µM with MOLT-4 leukemia. In addition, the TGI is > 100 µM in the experiment with NCI/ADR-RES ovarian, 3.63 µM in the experiment with MALME-3M melanoma, 5.05 µM with SF-295 CNS and 5.65 µM with A549 NSCLC.

As for `CC#CC#C/C=C1\C=CC2(OC=CC2OC(C)=O)O1` (stereo unspecified), the TGI with PC-3 prostate is > 100 µM; in the experiment with NCI-H460 lung, 65 µM and > 100 µM; with SN12C renal, 36.5 µM and 31 µM; with SW-620 colon, 65.9 µM and 39.7 µM; in the experiment with HS 578T breast it was > 100 µM; in the experiment with MOLT-4 leukemia, 64.6 µM and 53.2 µM. Besides, the TGI was > 100 µM in the experiment on NCI/ADR-RES ovarian; > 100 µM and 69.8 µM in the experiment with MALME-3M melanoma; > 100 µM with SF-295 CNS; > 100 µM with A549 NSCLC. Besides, the GI50 with MOLT-4 leukemia was 6.9 µM and 17.8 µM.

Source of the values: PubChem BioAssay (NCI).
